Patent publication US20250367343A1, “CLINICAL DRESSING LOADED WITH COFFEE EXTRACT” (KING SAUD UNIVERSITY, priority 2024, published 2025)

What follows are compounds tested on methicillin-resistant Staphylococcus aureus (ATCC 43300) (assay: Standard antibiotic sensitivity test using the Vitek-2 system). Settings: strain ATCC 43300.
Type: cell-based

Compound	antibiotic sensitivity of the MRSA strain
CC1(C)S[C@@H]2[C@H](NC(=O)[C@H](N)c3ccccc3)C(=O)N2[C@H]1C(=O)O [ampicillin]	resistant
CO[C@@]1(NC(=O)Cc2cccs2)C(=O)N2C(C(=O)O)=C(COC(N)=O)CS[C@@H]21 [cefoxitin]	resistant
Cc1onc(-c2ccccc2)c1C(=O)N[C@@H]1C(=O)N2[C@@H]1SC(C)(C)[C@@H]2C(=O)O [oxacillin]	resistant
CC1(C)S[C@@H]2[C@H](NC(=O)Cc3ccccc3)C(=O)N2[C@H]1C(=O)O [penicillin G]	resistant
amoxicillin-alavulanate	resistant
